Measured values published in the NIST ThermoML archive (doi:10.1016/j.jct.2017.08.004).

Test: molar heat capacity at constant pressure
Settings: 101.33 kPa, Crystal

OC[C@@H](O)[C@@H](O)CO [meso-1,2,3,4-butanetetrol]
Settings | molar heat capacity at constant pressure [J/K/mol]
1 K, relaxation calorimetry | 0.00103
1.924 K, relaxation calorimetry | 0.005451
2 K, relaxation calorimetry | 0.006099
2.124 K, relaxation calorimetry | 0.007391
2.347 K, relaxation calorimetry | 0.009418
2.604 K, relaxation calorimetry | 0.01294
2.892 K, relaxation calorimetry | 0.01782
3 K, relaxation calorimetry | 0.01982
3.203 K, relaxation calorimetry | 0.02425
3.549 K, relaxation calorimetry | 0.03325
3.937 K, relaxation calorimetry | 0.04561
4 K, relaxation calorimetry | 0.04786
4.364 K, relaxation calorimetry | 0.06293
4.842 K, relaxation calorimetry | 0.08785
5 K, relaxation calorimetry | 0.09724
5.372 K, relaxation calorimetry | 0.1225
5.959 K, relaxation calorimetry | 0.1717
6 K, relaxation calorimetry | 0.1763
6.613 K, relaxation calorimetry | 0.2418
7 K, relaxation calorimetry | 0.2944
7.34 K, relaxation calorimetry | 0.3445
8 K, relaxation calorimetry | 0.4614
8.147 K, relaxation calorimetry | 0.493
9 K, relaxation calorimetry | 0.6863
9.042 K, relaxation calorimetry | 0.6996
10 K, relaxation calorimetry | 0.9714
10.11 K, relaxation calorimetry | 0.9995
11.21 K, relaxation calorimetry | 1.394
12.45 K, relaxation calorimetry | 1.929
13.81 K, relaxation calorimetry | 2.607
15 K, relaxation calorimetry | 3.273
15.35 K, relaxation calorimetry | 3.484
17.04 K, relaxation calorimetry | 4.582
18.93 K, relaxation calorimetry | 5.892
20 K, relaxation calorimetry | 6.679
21.01 K, relaxation calorimetry | 7.451
23.34 K, relaxation calorimetry | 9.268
25 K, relaxation calorimetry | 10.62
25.88 K, relaxation calorimetry | 11.3
28.73 K, relaxation calorimetry | 13.63
30 K, relaxation calorimetry | 14.7
31.9 K, relaxation calorimetry | 16.25
35 K, relaxation calorimetry | 18.79
35.42 K, relaxation calorimetry | 19.19
39.33 K, relaxation calorimetry | 22.36
40 K, relaxation calorimetry | 22.84
43.67 K, relaxation calorimetry | 25.77
45 K, relaxation calorimetry | 26.81
48.45 K, relaxation calorimetry | 29.39
50 K, relaxation calorimetry | 30.63
53.77 K, relaxation calorimetry | 33.35
55 K, relaxation calorimetry | 34.26
59.7 K, relaxation calorimetry | 37.69
60 K, relaxation calorimetry | 37.94
65 K, relaxation calorimetry | 41.5
66.26 K, relaxation calorimetry | 42.34
70 K, relaxation calorimetry | 44.95
73.58 K, relaxation calorimetry | 47.19
75 K, relaxation calorimetry | 48.3
80 K, relaxation calorimetry | 51.54
81.69 K, relaxation calorimetry | 52.8
85 K, relaxation calorimetry | 54.68
90 K, relaxation calorimetry | 57.74
90.67 K, relaxation calorimetry | 58.3
95 K, relaxation calorimetry | 60.72
100 K, relaxation calorimetry | 63.64
100.62 K, relaxation calorimetry | 63.74
110 K, relaxation calorimetry | 69.28
110.75 K, relaxation calorimetry | 69.63
120 K, relaxation calorimetry | 74.73
120.81 K, relaxation calorimetry | 75.51
130 K, relaxation calorimetry | 80.03
130.85 K, relaxation calorimetry | 80.63
140 K, relaxation calorimetry | 85.23
140.98 K, relaxation calorimetry | 85.76
150 K, relaxation calorimetry | 90.34
151.1 K, relaxation calorimetry | 90.49
160 K, relaxation calorimetry | 95.4
161.19 K, relaxation calorimetry | 95.3
170 K, relaxation calorimetry | 100.41
171.29 K, relaxation calorimetry | 100.67
180 K, relaxation calorimetry | 105.4
181.37 K, relaxation calorimetry | 106.96
188.15 K, Small sample (50 mg) DSC | 104.81
189.15 K, Small sample (50 mg) DSC | 105.65
190 K, relaxation calorimetry | 110.37
190.15 K, Small sample (50 mg) DSC | 106.41
191.15 K, Small sample (50 mg) DSC | 107.06
191.45 K, relaxation calorimetry | 111.84
192.15 K, Small sample (50 mg) DSC | 107.53
193.15 K, Small sample (50 mg) DSC | 107.94
194.15 K, Small sample (50 mg) DSC | 108.84
195.15 K, Small sample (50 mg) DSC | 109.73
196.15 K, Small sample (50 mg) DSC | 110.56
197.15 K, Small sample (50 mg) DSC | 111.25
198.15 K, Small sample (50 mg) DSC | 111.77
199.15 K, Small sample (50 mg) DSC | 112.42
200 K, relaxation calorimetry | 115.34
200.15 K, Small sample (50 mg) DSC | 113.07
201.15 K, Small sample (50 mg) DSC | 113.73
201.6 K, relaxation calorimetry | 116.2
202.15 K, Small sample (50 mg) DSC | 114.29
203.15 K, Small sample (50 mg) DSC | 114.78
204.15 K, Small sample (50 mg) DSC | 115.4
205.15 K, Small sample (50 mg) DSC | 115.95
206.15 K, Small sample (50 mg) DSC | 116.45
207.15 K, Small sample (50 mg) DSC | 116.98
208.15 K, Small sample (50 mg) DSC | 117.43
209.15 K, Small sample (50 mg) DSC | 117.85
210 K, relaxation calorimetry | 120.31
210.15 K, Small sample (50 mg) DSC | 118.46
211.15 K, Small sample (50 mg) DSC | 119.05
211.7 K, relaxation calorimetry | 120.82
212.15 K, Small sample (50 mg) DSC | 119.45
213.15 K, Small sample (50 mg) DSC | 120.03
214.15 K, Small sample (50 mg) DSC | 120.6
215.15 K, Small sample (50 mg) DSC | 120.96
216.15 K, Small sample (50 mg) DSC | 121.61
217.15 K, Small sample (50 mg) DSC | 122.09
218.15 K, Small sample (50 mg) DSC | 122.56
219.15 K, Small sample (50 mg) DSC | 123.25
220 K, relaxation calorimetry | 125.28
220.15 K, Small sample (50 mg) DSC | 123.79
221.15 K, Small sample (50 mg) DSC | 124.32
221.79 K, relaxation calorimetry | 126.14
222.15 K, Small sample (50 mg) DSC | 124.76
223.15 K, Small sample (50 mg) DSC | 125.31
224.15 K, Small sample (50 mg) DSC | 125.9
225.15 K, Small sample (50 mg) DSC | 126.32
226.15 K, Small sample (50 mg) DSC | 126.8
227.15 K, Small sample (50 mg) DSC | 127.31
228.15 K, Small sample (50 mg) DSC | 127.86
229.15 K, Small sample (50 mg) DSC | 128.26
230 K, relaxation calorimetry | 130.27
230.15 K, Small sample (50 mg) DSC | 128.74
231.15 K, Small sample (50 mg) DSC | 129.25
231.89 K, relaxation calorimetry | 131.18
232.15 K, Small sample (50 mg) DSC | 129.79
233.15 K, Small sample (50 mg) DSC | 130.29
234.15 K, Small sample (50 mg) DSC | 130.84
235.15 K, Small sample (50 mg) DSC | 131.47
236.15 K, Small sample (50 mg) DSC | 132.03
237.15 K, Small sample (50 mg) DSC | 132.65
238.15 K, Small sample (50 mg) DSC | 133.18
239.15 K, Small sample (50 mg) DSC | 133.62
240 K, relaxation calorimetry | 135.27
240.15 K, Small sample (50 mg) DSC | 134.1
241.15 K, Small sample (50 mg) DSC | 134.58
241.92 K, relaxation calorimetry | 136.06
242.15 K, Small sample (50 mg) DSC | 135
243.15 K, Small sample (50 mg) DSC | 135.48
244.15 K, Small sample (50 mg) DSC | 135.91
245.15 K, Small sample (50 mg) DSC | 136.33
246.15 K, Small sample (50 mg) DSC | 136.8
247.15 K, Small sample (50 mg) DSC | 137.31
248.15 K, Small sample (50 mg) DSC | 137.82
249.15 K, Small sample (50 mg) DSC | 138.21
250 K, relaxation calorimetry | 140.29
250.15 K, Small sample (50 mg) DSC | 138.96
251.15 K, Small sample (50 mg) DSC | 139.41
251.99 K, relaxation calorimetry | 141.26
252.15 K, Small sample (50 mg) DSC | 139.85
253.15 K, Small sample (50 mg) DSC | 140.35
254.15 K, Small sample (50 mg) DSC | 140.97
255.15 K, Small sample (50 mg) DSC | 141.49
256.15 K, Small sample (50 mg) DSC | 142.02
257.15 K, Small sample (50 mg) DSC | 142.62
258.15 K, Small sample (50 mg) DSC | 143.2
259.15 K, Small sample (50 mg) DSC | 143.78
260 K, relaxation calorimetry | 145.33
260.15 K, Small sample (50 mg) DSC | 144.21
261.15 K, Small sample (50 mg) DSC | 144.74
262.11 K, relaxation calorimetry | 146.2
262.15 K, Small sample (50 mg) DSC | 145.34
263.15 K, Small sample (50 mg) DSC | 145.66
